PMC8984176, “Tuftsin: A Natural Molecule Against SARS-CoV-2 Infection” (Frontiers in Molecular Biosciences, 2022)
pKd: −log10 of the molar value. Peptide text beside a SMILES is read from it.

Legend:
recombinant human NRP1 = recombinant human NRP1 (Homo sapiens, UniProt O14786); experiment: SPR binding to immobilized NRP1; conditions: SPR Biacore T200, CM5 chip, amine coupling, 25°C, 30 µl/min, 1×PBS, 0.05% Tween 20, 5% dimethyl sulfoxide, pH 7.4; steady state affinity model; read-out: K D value
Chain of recombinant human NRP1 (O14786 22-923): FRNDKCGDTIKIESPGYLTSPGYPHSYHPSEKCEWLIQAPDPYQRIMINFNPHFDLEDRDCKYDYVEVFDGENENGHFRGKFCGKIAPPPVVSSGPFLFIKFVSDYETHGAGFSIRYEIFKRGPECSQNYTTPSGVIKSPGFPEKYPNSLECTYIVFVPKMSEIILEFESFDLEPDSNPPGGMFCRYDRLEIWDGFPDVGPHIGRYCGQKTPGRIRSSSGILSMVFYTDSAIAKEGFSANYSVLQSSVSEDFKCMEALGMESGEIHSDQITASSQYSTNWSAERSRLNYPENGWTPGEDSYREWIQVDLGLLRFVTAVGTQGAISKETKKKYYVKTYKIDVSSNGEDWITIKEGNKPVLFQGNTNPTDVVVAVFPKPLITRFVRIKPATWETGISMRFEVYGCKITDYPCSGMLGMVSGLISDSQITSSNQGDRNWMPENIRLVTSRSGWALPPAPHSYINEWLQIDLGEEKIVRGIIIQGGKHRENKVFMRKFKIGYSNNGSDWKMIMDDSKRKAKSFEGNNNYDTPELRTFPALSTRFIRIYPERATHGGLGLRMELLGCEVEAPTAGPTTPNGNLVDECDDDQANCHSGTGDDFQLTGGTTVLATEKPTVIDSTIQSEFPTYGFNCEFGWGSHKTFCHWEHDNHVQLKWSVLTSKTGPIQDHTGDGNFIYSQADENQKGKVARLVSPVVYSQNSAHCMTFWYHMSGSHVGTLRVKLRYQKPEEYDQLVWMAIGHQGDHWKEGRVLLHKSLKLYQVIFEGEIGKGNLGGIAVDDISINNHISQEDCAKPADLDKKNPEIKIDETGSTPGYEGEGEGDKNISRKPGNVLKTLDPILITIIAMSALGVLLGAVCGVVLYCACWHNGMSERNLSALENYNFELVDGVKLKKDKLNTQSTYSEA
Procedure: (§1) Each target was immobilized onto flow cells in a CM5 sensor chip (GE Healthcare) via the amine-coupling method. Briefly, ACE2 and NRP1 were diluted in 10 mM pH 4.5 acetate to 20 μg/ml. Then, the protein solutions were injected individually on the carboxyl-modified sensor surface to form amine bonds. Both ACE2 and NRP1 immobilized levels were approximately 10,000 RU. Binding analyses were carried out at 25°C and a flow rate of 30 µl/min. Tuftsin diluted in running buffer (1×PBS, 0.05% Tween 20 and 5% dimethyl sulfoxide, pH 7.4) was run over each target at gradient concentrations. An empty flow cell without any immobilized protein was used as a deducted reference. The binding curves were analysed using the steady state affinity model supplied with Biacore Evaluation Software (GE Healthcare).
(§2) The interactions of tuftsin with ACE2 and NRP1 were further evaluated by real-time biomolecular interaction analysis with SPR. The steady state affinity of the binding reaction were determined by injecting different concentrations of tuftsin over recombinant human ACE2 immobilized on one half of the chip surface, and over recombinant human NRP1 immobilized on another half of the chip surface. […] The K D fitting curve of tuftsin with NRP1 is gradually stable when the concentrations of tuftsin increased gradually, conforming to the characteristic of specific binding (Figure 3B).

recombinant human ACE2 = target: T1, recombinant human ACE2 (Homo sapiens, UniProt Q9BYF1); experiment: SPR binding to immobilized ACE2; conditions: SPR Biacore T200, CM5 chip, amine coupling, 25°C, 30 µl/min, 1×PBS, 0.05% Tween 20, 5% dimethyl sulfoxide, pH 7.4; steady state affinity model; read-out: equilibrium dissociation constant (K D)
T1 construct: purchased Novoprotein, Beijing, China
T1 sequence (Q9BYF1 18-805): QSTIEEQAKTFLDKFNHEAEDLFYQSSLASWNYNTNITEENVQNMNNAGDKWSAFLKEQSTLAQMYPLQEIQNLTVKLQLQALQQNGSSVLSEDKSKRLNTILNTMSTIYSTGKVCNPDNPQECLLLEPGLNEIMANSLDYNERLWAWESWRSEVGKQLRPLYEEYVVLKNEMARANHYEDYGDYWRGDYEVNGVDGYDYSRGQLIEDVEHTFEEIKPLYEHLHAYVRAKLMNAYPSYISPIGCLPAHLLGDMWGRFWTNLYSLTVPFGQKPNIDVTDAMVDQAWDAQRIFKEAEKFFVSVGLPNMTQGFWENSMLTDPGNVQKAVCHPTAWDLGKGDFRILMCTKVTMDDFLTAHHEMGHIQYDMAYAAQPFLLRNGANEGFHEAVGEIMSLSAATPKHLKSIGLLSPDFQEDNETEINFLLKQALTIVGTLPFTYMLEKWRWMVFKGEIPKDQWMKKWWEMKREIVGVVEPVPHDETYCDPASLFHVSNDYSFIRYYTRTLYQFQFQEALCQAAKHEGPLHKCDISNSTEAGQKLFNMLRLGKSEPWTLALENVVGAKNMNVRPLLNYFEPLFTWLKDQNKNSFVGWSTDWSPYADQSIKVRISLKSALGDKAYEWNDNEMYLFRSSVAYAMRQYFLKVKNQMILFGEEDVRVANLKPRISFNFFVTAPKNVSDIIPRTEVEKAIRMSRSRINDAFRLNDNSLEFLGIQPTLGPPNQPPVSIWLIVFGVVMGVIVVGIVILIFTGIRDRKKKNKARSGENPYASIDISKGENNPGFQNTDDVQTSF
Procedure: as §1, §2

[1] = in vitro and in vivo; ref Amoscato et al., 1983; Fridkin and Najjar, 1989; Siemion and Kluczyk, 1999; cited from earlier work
Source text: Along with ACE2, neuropilin 1 (NRP1) is another important host factor for SARS-CoV-2 infection ([Daly et al., 2020]). It has been reported that NRP1 facilitates the entry of SARS-CoV-2 into cells in the presence of ACE2 ([Cantuti-Castelvetri et al., 2020]). […] Tuftsin, a natural phagocytosis-stimulating peptide, was found by [Najjar and Nishioka (1970)]. Tuftsin is released from the Fc fragment of IgG by enzyme cleavage of an endocarboxy-peptidase in the spleen and a leukokin ...

C[C@@H](O)[C@H](N)C(=O)N[C@@H](CCCCN)C(=O)N1CCC[C@H]1C(=O)N[C@@H](CCCNC(=N)N)C(=O)O [tuftsin, L-Threonyl-L-Lysyl-L-Prolyl-L-Arginine] (H-TKPR-OH)
pKd (recombinant human NRP1): 4.97 | pKd (recombinant human ACE2): 3.34 | toxicity [1]: low toxicity
